Experimental findings from ChEMBL document CHEMBL2016468, “Development of rationally designed DNA N6 adenine methyltransferase inhibitors” (Bioorg Med Chem Lett, 2012) are described below.

A short description of the assay: Inhibition of Yersinia pestis Dam using oligonucleotide 1 as substrate after 2000 to 3000 sec by micro plate reader based real-time break-light assay.

Usually IC50 stands for the point on the concentration scale where inhibition reaches its midpoint. A low value points to higher potency. Take `Nc1ncnc2c1ncn2[C@@H]1O[C@H](CNCC[C@H](N)C(=O)O)[C@@H](O)[C@H]1O`: the IC50 worked out at 84 µM.

The compound `Nc1ncnc2c1ncn2[C@@H]1O[C@H](CN(CC[C@H](N)C(=O)O)Cc2ccccn2)[C@@H](O)[C@H]1O` had an IC50 above 250 µM.

For `Nc1ncnc2c1ncn2[C@@H]1O[C@H](CN(CCCc2ccccn2)CC[C@H](N)C(=O)O)[C@@H](O)[C@H]1O`, the IC50 is above 250 µM.

As to `Nc1ncnc2c1ncn2[C@@H]1O[C@H](CN(CCc2c[nH]c3ccccc23)CC[C@H](N)C(=O)O)[C@@H](O)[C@H]1O`, it took 12.3 µM to reach half-maximal inhibition (IC50). That is a double-digit micromolar value.

Consider `Nc1ncnc2c1ncn2[C@@H]1O[C@H](CN(CCCc2c[nH]c3ccccc23)CC[C@H](N)C(=O)O)[C@@H](O)[C@H]1O`, for which half-maximal inhibition (IC50) was put at 13.1 µM.

As to `Nc1ncnc2c1ncn2[C@@H]1O[C@H](CN(CCc2coc3ccccc23)CC[C@H](N)C(=O)O)[C@@H](O)[C@H]1O`, the IC50 came out at 39.2 µM.

Take `Nc1ncnc2c1ncn2[C@@H]1O[C@H](CN(CCc2csc3ccccc23)CC[C@H](N)C(=O)O)[C@@H](O)[C@H]1O`: the IC50 was found to be 28.9 µM. The IC50 values of the last two compounds are within 1.5-fold of each other.

On to `Nc1ncnc2c1ncn2[C@@H]1O[C@H](CN(CCc2cccc3[nH]ccc23)CC[C@H](N)C(=O)O)[C@@H](O)[C@H]1O`, for which half-maximal inhibition (IC50) was put at 31.3 µM.

`Nc1ncnc2c1ncn2[C@@H]1O[C@H](CSCC[C@H](N)C(=O)O)[C@@H](O)[C@H]1O` [S-ADENOSYLHOMOCYSTEINE] gave an IC50 of 11.9 µM. This IC50 is about 2.6-fold lower than that of the compound before.
